Experimental data from patent publication US20080311126A1, “Antisense Oligonucleotides Directed to Ribonucleotide Reducatase R2 and Uses Thereof in Combination Therapies for the Treatment of Cancer” (Genesense Technologies, Inc, priority 2004, published 2008).
Oligonucleotides are written 5' to 3', each unit as a sugar letter and its base; * is a phosphorothioate linkage, no mark a phosphodiester; rarer units and linkages stand in square brackets, end groups in braces. Plain capitals give the bases only. d = 2'-deoxy (DNA)

What was measured:
Type in all cases: cell-based, human
[1] = test system: MDA-MB-231 breast cell adenocarcinoma; test: Relative colony forming efficiency (Example 17, Table 13); settings: averages of 2-8 determinations
Method in brief: (§1)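 Phosphorothioate antisense oligodeoxynucleotides, at 0.2 μM unless otherwise indicated, were applied with 2.5 μg DOTMA/DOPE (Lipofectin) for 4 h. Colonies stained with methylene blue and scored, with viability sometimes checked by trypan blue exclusion. Values given as % inhibition of colony formation relative to lipofectin-only controls.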

[2] = test system: T24 bladder cell carcinoma; test: as above; settings: averages of 2-8 determinations
Method in brief: as §1

[3] = test system: H596 lung adenosquamous carcinoma cells; test: as above; settings: averages of 2-8 determinations
Method in brief: as §1

[4] = test system: HCT116 colon cell carcinoma; test: as above; settings: averages of 2-8 determinations
Method in brief: as §1

[5] = test system: PC-3 prostrate cell adenocarcinoma; test: as above; settings: averages of 2-8 determinations
Method in brief: as §1

[6] = test system: T-47D breast ductal carcinoma; test: as above; settings: averages of 2-8 determinations
Method in brief: as §1

[7] = test system: MDA PaCa-2 pancreatic cell carcinoma; test: as above; settings: MIA PaCa-2 pancreatic cell carcinoma; averages of 2-8 determinations
Method in brief: as §1

[8] = test system: HepG2 hepatocellular carcinoma; test: as above; settings: averages of 2-8 determinations
Method in brief: as §1

A549 lung cell carcinoma = test: as above; settings: averages of 2-8 determinations
Method in brief: as §1

Hela S3 cells = test: Relative colony forming efficiency, lipofectin +/- oligonucleotide 4 hours; settings: Hela S3 cervix carcinoma cells; averages of 2-8 determinations
Method in brief: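 HeLa S3 cells were exposed to phosphorothioate antisense oligonucleotide (0.2 μM unless stated) with lipofectin for 4 h, then grown 7–10 days in 10% FBS medium. Methylene blue-stained colonies were counted and expressed as percent survival relative to lipofectin-only controls.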

| Substance | Reduced relative colony forming efficiency, MDA-MB-231 (% inhibition of colony forming ability) [1] [%] | Reduced relative colony forming efficiency, T24 (% inhibition of colony forming ability) [2] [%] | Reduced relative colony forming efficiency, 11596 (% inhibition of colony forming ability) [3] [%] | Reduced relative colony forming efficiency, HCT116 (% inhibition of colony forming ability) [4] [%] | Reduced relative colony forming efficiency, PC-3 (% inhibition of colony forming ability) [5] [%] | Reduced relative colony forming efficiency, T-47D (% inhibition of colony forming ability) [6] [%] | Reduced relative colony forming efficiency, MIA PaCa-2 (% inhibition of colony forming ability) [7] [%] | Reduced relative colony forming efficiency, HepG2 (% inhibition of colony forming ability) [8] [%] | Reduced relative colony forming efficiency, A549 (% inhibition of colony forming ability) (A549 lung cell carcinoma) [%] | Reduced relative colony forming efficiency, Hela S3 (% inhibition of colony forming ability) (Hela S3 cells) [%] |
| --- | --- | --- | --- | --- | --- | --- | --- | --- | --- | --- |
| AS-II-1560.20 (antisense dG*dT*dA*dA*dG*dT*dC*dA*dC*dA*dG*dC*dC*dA*dG*dC*dC*dA*dG*dG) | 46.15 | 32.49 | 71.16 | 85.81 | 78.37 | 86.6 | 33.3 | 73.63 | 84.19 | 82.16 |
| C*CCC*TCAC*TCC*AGC*AGC*CT*T (antisense dC*dCdCdC*dTdCdAdC*dTdCdC*dAdGdC*dAdGdC*dCdT*dT) [AS-II-109-20] | 22.38 | 24.89 | 7.28 | 6.76 | 61.51 | 20.63 | 54.24 | 18.08 | 15.14 | 46.83 |
| CCCAGGACACTACACAAGCC (antisense dC*dC*dC*dA*dG*dG*dA*dC*dA*dC*dT*dA*dC*dA*dC*dA*dA*dG*dC*dC) [AS-II-2026-20] | 77.1 | 95.46 | 84.16 | 81.47 | 95.29 | 93.41 | 87.65 | 94.54 | 88.81 | 83.79 |
| CCTGTCTTCTATCTGGCACC (antisense dC*dC*dT*dG*dT*dC*dT*dT*dC*dT*dA*dT*dC*dT*dG*dG*dC*dA*dC*dC) [AS-II-1989-20] | 54.9 | 77.43 | 56.33 | 78.47 | 77.38 | 90.83 | 70.22 | 80.7 | 83.9 | 61.41 |
| CGGAGGGAGAGCATAGTGGA (antisense dC*dG*dG*dA*dG*dG*dG*dA*dG*dA*dG*dC*dA*dT*dA*dG*dT*dG*dG*dA) [AS-II-189-20] | 39.86 | 18.57 | 26.15 | 86.78 | 73.12 | 96.63 | 70.52 | 57.86 | 76.57 | 76.67 |
